Literature values in patent publication US7785629B2, “Bicalutamide-adsorbates, process for preparing same, and pharmaceutical compositions thereof” (Helm AG, priority 2005, dated 2010).

Settings: water and aqueous buffers at various pH values

Solubility: sparingly soluble
SMILES: CC(O)(CS(=O)(=O)c1ccc(F)cc1)C(=O)Nc1ccc(C#N)c(C(F)(F)F)c1 (stereo not shown) [Bicalutamide, N-[4′-cyano-3′-trifluoromethyl-phenyl]-3-[4″-fluorophenylsulfonyl]-2-hydroxy-2-methyl-propionamide]
